Laboratory results from paper PMC4166403 (Cell, 2014).

Columns and labels:
[1] = target: T1, pyruvate carboxylase (LmPC) (Listeria monocytogenes, UniProt Q8Y846); assay: PC activity assay with nucleotide analogues; format: biochemical
T1 sequence (Q8Y846 1-1146): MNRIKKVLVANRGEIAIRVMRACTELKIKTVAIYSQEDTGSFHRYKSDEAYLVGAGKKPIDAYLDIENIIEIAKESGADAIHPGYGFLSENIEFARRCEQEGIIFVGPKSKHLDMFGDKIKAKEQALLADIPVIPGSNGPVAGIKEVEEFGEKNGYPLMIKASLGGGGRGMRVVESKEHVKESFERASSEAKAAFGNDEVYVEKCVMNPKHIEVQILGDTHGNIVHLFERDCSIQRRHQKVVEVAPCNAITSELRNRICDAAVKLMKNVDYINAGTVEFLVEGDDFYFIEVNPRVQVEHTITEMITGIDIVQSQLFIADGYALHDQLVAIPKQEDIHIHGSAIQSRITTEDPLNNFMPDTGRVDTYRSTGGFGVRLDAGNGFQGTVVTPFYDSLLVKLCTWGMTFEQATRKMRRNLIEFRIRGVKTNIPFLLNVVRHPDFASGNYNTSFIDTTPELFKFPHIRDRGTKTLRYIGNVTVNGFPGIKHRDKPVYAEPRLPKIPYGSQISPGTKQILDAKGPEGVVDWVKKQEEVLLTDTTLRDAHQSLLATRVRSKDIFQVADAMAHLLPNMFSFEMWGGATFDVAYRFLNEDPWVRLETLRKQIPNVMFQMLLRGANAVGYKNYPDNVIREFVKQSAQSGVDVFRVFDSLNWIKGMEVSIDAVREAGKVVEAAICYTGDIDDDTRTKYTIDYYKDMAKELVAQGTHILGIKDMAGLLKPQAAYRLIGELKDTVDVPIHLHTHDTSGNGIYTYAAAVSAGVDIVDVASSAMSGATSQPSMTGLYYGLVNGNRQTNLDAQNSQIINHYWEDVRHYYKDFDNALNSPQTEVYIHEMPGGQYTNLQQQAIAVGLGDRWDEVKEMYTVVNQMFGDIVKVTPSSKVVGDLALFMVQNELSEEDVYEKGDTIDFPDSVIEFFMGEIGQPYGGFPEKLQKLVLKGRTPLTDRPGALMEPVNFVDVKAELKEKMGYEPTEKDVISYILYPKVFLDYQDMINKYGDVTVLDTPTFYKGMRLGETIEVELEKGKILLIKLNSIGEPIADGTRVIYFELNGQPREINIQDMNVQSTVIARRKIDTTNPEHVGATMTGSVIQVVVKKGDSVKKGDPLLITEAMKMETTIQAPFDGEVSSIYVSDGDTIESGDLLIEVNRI

Lmo1466 = target: T2, Lmo1466 (Listeria monocytogenes, UniProt Q8Y746); assay: DRaCALA with […]-c-di-AMP in E. coli lysate expressing the protein; format: cell-based
T2 sequence (Q8Y746 1-718): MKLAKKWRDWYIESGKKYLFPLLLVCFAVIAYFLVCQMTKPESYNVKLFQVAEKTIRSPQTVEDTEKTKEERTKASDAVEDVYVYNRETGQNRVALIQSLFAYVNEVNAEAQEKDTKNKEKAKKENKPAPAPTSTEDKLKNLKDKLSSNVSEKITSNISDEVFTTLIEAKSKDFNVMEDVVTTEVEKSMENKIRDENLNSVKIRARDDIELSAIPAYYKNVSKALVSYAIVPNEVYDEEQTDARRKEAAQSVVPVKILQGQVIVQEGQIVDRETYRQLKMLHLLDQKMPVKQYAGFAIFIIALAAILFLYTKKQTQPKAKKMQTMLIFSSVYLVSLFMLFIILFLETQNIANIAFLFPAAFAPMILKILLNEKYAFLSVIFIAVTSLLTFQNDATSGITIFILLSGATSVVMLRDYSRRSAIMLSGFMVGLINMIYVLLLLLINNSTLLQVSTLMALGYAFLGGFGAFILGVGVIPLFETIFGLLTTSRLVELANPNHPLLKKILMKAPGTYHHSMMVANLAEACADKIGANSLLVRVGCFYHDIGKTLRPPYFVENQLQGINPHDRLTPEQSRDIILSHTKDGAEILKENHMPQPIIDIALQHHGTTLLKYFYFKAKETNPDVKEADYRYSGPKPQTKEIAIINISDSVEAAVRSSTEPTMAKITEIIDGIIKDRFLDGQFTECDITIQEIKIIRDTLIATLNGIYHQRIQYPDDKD

[2] = target: pyruvate carboxylase (LmPC) (Listeria monocytogenes, UniProt Q8Y846, Y722F); assay: binding titration and enzyme inhibition of purified mutant
[3] = target: T1, pyruvate carboxylase (LmPC); assay: crystal structure; format: binding
PdeA (Lmo0052) = target: T3, PdeA (Lmo0052) (Listeria monocytogenes, UniProt A0A0H3GCG4); assay: DRaCALA with […]-c-di-AMP, purified recombinant protein; format: binding
T3 sequence (A0A0H3GCG4 1-657): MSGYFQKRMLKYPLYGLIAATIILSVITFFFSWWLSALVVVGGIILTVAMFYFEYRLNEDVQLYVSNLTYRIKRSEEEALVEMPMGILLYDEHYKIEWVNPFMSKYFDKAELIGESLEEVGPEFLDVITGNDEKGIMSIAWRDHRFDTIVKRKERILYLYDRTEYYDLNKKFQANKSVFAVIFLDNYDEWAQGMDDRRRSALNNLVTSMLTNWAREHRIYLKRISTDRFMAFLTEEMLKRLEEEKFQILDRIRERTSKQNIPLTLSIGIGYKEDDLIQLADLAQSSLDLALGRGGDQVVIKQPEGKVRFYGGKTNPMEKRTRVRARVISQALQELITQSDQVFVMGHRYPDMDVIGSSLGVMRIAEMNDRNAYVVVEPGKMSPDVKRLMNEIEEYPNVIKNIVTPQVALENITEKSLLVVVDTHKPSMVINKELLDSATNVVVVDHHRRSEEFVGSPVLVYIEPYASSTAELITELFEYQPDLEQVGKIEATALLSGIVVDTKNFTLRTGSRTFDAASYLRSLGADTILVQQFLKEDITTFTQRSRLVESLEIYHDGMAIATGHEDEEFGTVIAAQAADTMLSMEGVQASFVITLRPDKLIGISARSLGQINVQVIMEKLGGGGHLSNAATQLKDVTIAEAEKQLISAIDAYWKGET

crystal structure = target: the molecule itself; assay: crystal structure

With O=c1[nH]cnc2c1ncn2[C@@H]1O[C@@H]2COP(=O)(O)O[C@H]3[C@@H](O)[C@H](n4cnc5c(=O)[nH]cnc54)O[C@@H]3COP(=O)(O)O[C@H]2[C@H]1O [c-di-IMP] as the molecule, how does the “PC activity assay with nucleotide analogues” value [1] read?
Its value is “while c-di-IMP did show weak inhibitory activity”.

With Nc1ncnc2c1ncn2[C@@H]1O[C@@H]2CO[P@@](=O)(O)O[C@H]3[C@@H](O)[C@H](n4cnc5c(N)ncnc54)O[C@@H]3CO[P@@](=O)(O)O[C@H]2[C@H]1O [cdA, c-di-AMP] as the molecule, how does the “DRaCALA with 32P-c-di-AMP in E. coli lysate expressing the protein” value (Lmo1466) read?
Its value is “A significant level of binding was observed for Lmo1466 and NrdR-expressing lysates, consistent with a direct interaction with c-di-AMP”.

What about the “binding titration and enzyme inhibition of purified mutant” value [2] of the same molecule?
The value was “binding to c-di-AMP was only observed for Y722F and none of the other amino acid variants”.

And the Kd [3]?
The Kd was 8 ± 0.2 µM.

What about the “DRaCALA with 32P-c-di-AMP, purified recombinant protein” value (PdeA (Lmo0052)) of the same molecule?
Its value is “as well as PdeA and LmPC exhibited binding in purified form”.

B1: Listeria monocytogenes pyruvate carboxylase (LmPC) (enzyme)
chain: MNRIKKVLVANRGEIAIRVMRACTELKIKTVAIYSQEDTGSFHRYKSDEAYLVGAGKKPIDAYLDIENIIEIAKESGADAIHPGYGFLSENIEFARRCEQEGIIFVGPKSKHLDMFGDKIKAKEQALLADIPVIPGSNGPVAGIKEVEEFGEKNGYPLMIKASLGGGGRGMRVVESKEHVKESFERASSEAKAAFGNDEVYVEKCVMNPKHIEVQILGDTHGNIVHLFERDCSIQRRHQKVVEVAPCNAITSELRNRICDAAVKLMKNVDYINAGTVEFLVEGDDFYFIEVNPRVQVEHTITEMITGIDIVQSQLFIADGYALHDQLVAIPKQEDIHIHGSAIQSRITTEDPLNNFMPDTGRVDTYRSTGGFGVRLDAGNGFQGTVVTPFYDSLLVKLCTWGMTFEQATRKMRRNLIEFRIRGVKTNIPFLLNVVRHPDFASGNYNTSFIDTTPELFKFPHIRDRGTKTLRYIGNVTVNGFPGIKHRDKPVYAEPRLPKIPYGSQISPGTKQILDAKGPEGVVDWVKKQEEVLLTDTTLRDAHQSLLATRVRSKDIFQVADAMAHLLPNMFSFEMWGGATFDVAYRFLNEDPWVRLETLRKQIPNVMFQMLLRGANAVGYKNYPDNVIREFVKQSAQSGVDVFRVFDSLNWIKGMEVSIDAVREAGKVVEAAICYTGDIDDDTRTKYTIDYYKDMAKELVAQGTHILGIKDMAGLLKPQAAYRLIGELKDTVDVPIHLHTHDTSGNGIYTYAAAVSAGVDIVDVASSAMSGATSQPSMTGLYYGLVNGNRQTNLDAQNSQIINHYWEDVRHYYKDFDNALNSPQTEVYIHEMPGGQYTNLQQQAIAVGLGDRWDEVKEMYTVVNQMFGDIVKVTPSSKVVGDLALFMVQNELSEEDVYEKGDTIDFPDSVIEFFMGEIGQPYGGFPEKLQKLVLKGRTPLTDRPGALMEPVNFVDVKAELKEKMGYEPTEKDVISYILYPKVFLDYQDMINKYGDVTVLDTPTFYKGMRLGETIEVELEKGKILLIKLNSIGEPIADGTRVIYFELNGQPREINIQDMNVQSTVIARRKIDTTNPEHVGATMTGSVIQVVVKKGDSVKKGDPLLITEAMKMETTIQAPFDGEVSSIYVSDGDTIESGDLLIEVNRI
modifications: biotin group on the BCCP domain (position not given)
B1 was tested. Which “stoichiometry N” value (crystal structure) did it give?
The value was 4.
